From patent publication US7871628B2, “Peptide mimics of conserved gonococcal epitopes and methods and compositions using them” (University of Massachusetts, priority 1999, dated 2011)
Where “and” joins values, the source holds several entries; their conditions need not be identical. Equal values may be shown once. Positions of bridges follow the written chain, without caps; N, C: chain ends. No end group written: not given here.

Experiments:
IgG anti-LOS antibody = IgG anti-LOS antibody response in immunized mice; format: in vivo
Experimental: FIGS. 8A-8D show octa-MAP1-induced IgG anti-LOS antibody responses in mice. (A) Eight mice received a dose of 50 μg of Octa-MAP1 emulsified in Freund's adjuvant on day 0 and again on day 21. (B) Four mice were immunized with purified LOS as a positive control. Mice were immunized with either Freund's adjuvant (C) or an unrelated octa-MAP control peptide (D) as negative controls.
In FIG. 8(A), eight mice received a dose of 50 μg of Octa-MAP1 emulsified in Freund's adjuvant on day 0 and again on day 21. […] In these mice, IgG anti-LOS titers increased minimally after the first immunization and rose after boosting.
IgG anti-LOS antibody responses for the responder mice only (from the experiments depicted in FIGS. 8A-8D) are shown in FIG. 10. Antibody response is defined as IgG anti-LOS (mean±SE) greater than 0.4 μg/ml (4 fold above baseline IgG anti-LOS levels).

[1] = test system: N. gonorrhoeae strain 15253; assay: Complement-mediated bactericidal assay, strain 15253; format: cell-based, Neisseria gonorrhoeae
Experimental: (§1) A bactericidal assay was performed using (A) mAb 2C7 mice against strain 15253 (positive control) and strain 15253 lgtG (negative control) (4). 25 μg/ml of mAb 2C7 (100 μl in 150 μl of total volume of reaction mixture) mediated 100% killing of strain 15253, and no killing of strain 15253 lgtG. […] FIG. 12 controls included the Complement source without antibody (137.9%±1.0% survival (no killing) for strain 15253, and 132.5%±14.3% survival (no killing) for the lgtG mutant of 15253).
(§2) Depicted in FIG. 12 is a graph showing survival of N. gonorrhoeae strain 15253 and its lgtG mutant (2C7 epitope negative) (4) exposed to mouse immune serum (67% final mouse immune serum concentration by volume) plus added human complement obtained from normal human donors (17% final human complement concentration by volume).
A standard bactericidal assay was performed to assess complement-mediated bactericidal activity in mouse sera (11). In this assay, mouse serum (67% final volume) (from various mice immunized or not as described below) was incubated with approximately 2.5×10^3 bacteria suspended in Morse A media (33) in the presence of human complement (17% final volume). The reaction mixture was then shaken continuously at 37° C. for 30 minutes. Aliquots of the reaction mixture were then inoculated onto chocolate agar plates at time 0 and 30 minutes. Survival was expressed as the percent increase in colonies on the plate at 30 minutes, compared to those on the plate at 0 minutes. Greater than 100% survival in the assay indicates growth during the 30-minute incubation period.

[2] = test system: N. gonorrhoeae strain 15253 lgtG; assay: Complement-mediated bactericidal assay, strain 15253 lgtG mutant (2C7 epitope negative); format: cell-based, Neisseria gonorrhoeae; details: serum of single immunized mouse, 67% serum, 17% human complement
Experimental: as §1, §2
Strain 15253 lgtG contains a disrupted allele of lipooligosaccharide (LOS) glycosyl transferase G, which transfers glucose (via an α linkage) onto heptose-2 in the core of LOS (4). The disruption of the lgtG locus results in the loss of 2C7 epitope expression.
A standard bactericidal assay was performed to assess complement-mediated bactericidal activity in mouse sera (11). […] Survival was expressed as the percent increase in colonies on the plate at 30 minutes, compared to those on the plate at 0 minutes. […]

mAb 2C7 [3] = assay: Inhibition ELISA: synthetic peptide inhibiting mAb 2C7 binding to LOS
Experimental: Peptides were diluted in blocking buffer (1% ovalbumin, 0.05% TWEEN-20™ (polysorbate 20), 0.5 M NaCl in PBS) to produce mixtures of varying concentrations (0.1, 0.5 and 1 mg/ml). […] Purified LOS prepared from gonococcal strain 15253 was used as a positive control. A non-reactive 15-mer peptide sequence generated by the above described random peptide library system was used as a negative control peptide [SEQ ID NO:9].

mAb 2C7 [4] = assay: Direct ELISA: mAb 2C7 binding to multiple antigen peptides; details: plates coated with MAP 1 μg/well
Experimental: (§3) Solid phase ELISA was performed to assess the binding of mAb 2C7 to multiple antigen peptides. For direct ELISA, Immulon 1 plates were coated overnight with multiple antigen peptides (1 μg/well) and reacted with varying concentration of mAb 2C7. For inhibition ELISA, plates were coated with purified LOS prepared from N. gonorrhoeae strain 15253 (80 μg/ml) at 37° C. for 3 h. Peptides (linear or MAPs) were diluted in blocking buffer (1% ovalbumin, 0.05% TWEEN-20™ (polysorbate 20), 0.5 M NaCl in PBS) to produce mixtures of varying concentrations. 50 μl-aliquots from each concentration were incubated with 50 μl of mAb 2C7 (stock concentration 0.4 μg/ml diluted in blocking buffer) at 37° C. for 1 h, then 100 μl of mixtures were loaded into microtiter plate wells. […] Purified LOS prepared from gonococcal strain 15253 was used as a positive control in inhibition ELISA.

mAb 2C7 [5] = assay: Inhibition ELISA: linear peptide or MAPs inhibiting mAb 2C7 binding to LOS; details: for IC50: mAb 2C7 stock 0.4 μg/ml, LOS of strain 15253 coated plates, read-out: half maximal inhibition (IC50) of mAb 2C7 binding to LOS
Experimental: as §3

IgM anti-LOS antibody = IgM anti-LOS antibody response in immunized mice; format: in vivo; details: responder mice only

Substance: unrelated octa-MAP control peptide: unrelated octa-MAP negative control, each antigen SEQ ID NO: 12 (CGPEARDEGTITLERGPC; cysteine pairing not given here; also: octa-MAP on lysine core) [reference compound]
- IgG anti-LOS response (in words) (IgG anti-LOS antibody; immunized mice): weak or no IgG anti-LOS responses
- killing of strain 15253 (in words) ([1]; serum of single immunized mouse, 67% serum, 17% human complement): did not kill either strain
- killing/survival of strain 15253 lgtG (in words) [2]: did not kill either strain

Substance: IPVLDENGLFAP [PEP1]
- percentage inhibition of mAb 2C7 binding to LOS (mAb 2C7 [3]; peptide 0.1 mg/ml): 17%
- percentage inhibition of mAb 2C7 binding to LOS (mAb 2C7 [3]; peptide 0.5 mg/ml): 77%
- percentage inhibition of mAb 2C7 binding to LOS (mAb 2C7 [3]; peptide 1.0 mg/ml): 91%

Substance: control MAP: control multiple antigen peptide(s), each antigen SEQ ID NO: 12 (CGPEARDEGTITLERGPC; cysteine pairing not given here; also: multiple antigen peptide on lysine core) [reference compound]
- binding to mAb 2C7 in direct ELISA (in words) (mAb 2C7 [4]): no binding
- inhibition of mAb 2C7 binding to LOS (in words) (mAb 2C7 [5]): no significant inhibition

Substance: CGPIPVLDENGLFAPGPC [Octa-MAP1]
- binding to mAb 2C7 in direct ELISA (in words) (mAb 2C7 [4]): strong binding
- IC50 (mAb 2C7 [5]): 230 nM
- IgG anti-LOS antibody concentration in serum of immunized mouse (IgG anti-LOS antibody; individual mice, pooled bleeds weeks 7-11): 5.05 µg/mL and 1.38 µg/mL and 2.50 µg/mL
- mice with induced IgG anti-LOS antibody response (IgG anti-LOS antibody; mice immunized day 0 and day 21, Octa-MAP1 50 μg in Freund's adjuvant): three of the eight
- IgG anti-LOS antibody levels compared with negative control antigens (IgG anti-LOS antibody; responder mice, 7 and 10 weeks after primary immunization): higher (p<0.001)
- time of peak IgG anti-LOS response (IgG anti-LOS antibody; three responder mice, boost at week 3): 7 week
- IgM anti-LOS antibody response (in words) (IgM anti-LOS antibody): failed to respond with IgM anti-LOS levels higher than mice immunized with negative control antigens
- killing of strain 15253 ([1]; serum of immunized mouse containing 1.38 μg/ml anti-LOS antibodies): 31%
- killing of strain 15253 ([1]; serum of immunized mouse containing 2.50 μg/ml anti-LOS antibodies): 74%
- killing of strain 15253 ([1]; serum of immunized mouse containing 5.05 μg/ml IgG anti-LOS, 67% serum, 17% human complement, 30 min): 92%
- survival of strain 15253 ([1]; serum of single immunized mouse (pooled bleeds weeks 7-11), 67% serum, 17% human complement, 30 min): 8%
- killing/survival of strain 15253 lgtG (in words) [2]: survived fully

Substance: linear PEP1: linear PEP1 peptide compared with the MAPs in inhibition ELISA (IPVLDENGLFAP)
- IC50 (mAb 2C7 [5]): 55000 nM

Substance: CGPIPVLDENGLFAPGPC [Tetra-MAP1]
- binding to mAb 2C7 in direct ELISA (in words) (mAb 2C7 [4]): strong binding
- IC50 (mAb 2C7 [5]): 1260 nM

Substance: CKSNPIHIIKNRRNIPC (disulfide 1-17 (inferred)) [negative control peptide, reference compound]
- inhibition of binding of 2C7 mAb to purified LOS coated plate (in words) (mAb 2C7 [3]; peptide 0.1, 0.5 and 1 mg/ml): did not inhibit binding
